Experimental data published in patent publication US10525110B2, “Methods for inducing partial apoptosis using caspase polypeptides” (Bellicum Pharmaceuticals, Inc., priority 2013, dated 2020).

Experiments:
[1] = system: T cells transduced with these inducible death molecules; conditions: inducible Fas or FADD DED; cited from earlier work
[2] = system: gene-modified allodepleted cells; test: Induction of apoptosis with AP20187 in gene-modified allodepleted cells (annexin V/7-AAD); type: cell-based, human
Description: Suicide gene functionality was assessed by adding a small molecule synthetic homodimerizer, AP20187 (Ariad Pharmaceuticals; Cambridge, Mass.), at 10 nM final concentration the day following CD19 immunomagnetic selection. Cells were stained with annexin V and 7-amino-actinomycin (7-AAD)(BD Pharmingen) at 24 hours and analyzed by flow cytometry. Cells negative for both annexin V and 7-AAD were considered viable, cells that were annexin V positive were apoptotic, and cells that were both annexin V and 7-AAD positive were necrotic. The percentage killing induced by dimerization was corrected for baseline viability as follows: Percentage killing=100%−(% Viability in AP20187-treated cells÷% Viability in non-treated cells).
Cells were maintained in T cell medium containing 50 U/ml IL-2 until 22 days after transduction. A portion of cells was reactivated on 24-well plates coated with […] OKT3 and 1 μg/ml anti-CD28 (Clone CD28.2, BD Pharmingen, San Jose, Calif.) for 48 to 72 hours. CD19 expression and suicide gene function in both reactivated and non-reactivated cells were measured on day 24 or 25 post transduction.
In some experiments, cells also were cultured for 3 weeks post transduction and stimulated with 30G-irradiated allogeneic PBMC at a responder:stimulator ratio of 1:1. After 4 days of co-culture, a portion of cells was treated with 10 nM AP20187. Killing was measured by annexin V/7-AAD staining at 24 hours, and the effect of dimerizer on bystander virus-specific T cells was assessed by pentamer analysis on AP20187-treated and untreated cells.

iCasp9-transduced MSCs = test: Apoptosis of iCasp9-transduced undifferentiated MSCs in vitro (annexin V-PE/7-AAD); type: cell-based, human; conditions: CID 50 nM, 24 hours, FACS example
Description: Undifferentiated MSCs. The chemical inducer of dimerization (CID) (AP20187; ARIAD Pharmaceuticals, Cambridge, Mass.) was added at 50 nM to iCasp9-transduced MSCs cultures in complete medium. Apoptosis was evaluated 24 hours later by FACS analysis, after cell harvest and staining with annexin V-PE and 7-AAD in annexin V binding buffer (BD Biosciences, San Diego, Calif.). Control iCasp9-transduced MSCs were maintained in culture without exposure to CID.
The proapoptotic gene product iCasp9 can activated by a small chemical inducer of dimerization (CID), AP20187, an analogue of tacrolimus that binds the FK506-binding domain present in the iCasp9 product. Non-transduced MSCs have a spontaneous rate of apoptosis in culture of approximately 18% (±7%) as do iCasp9-positive cells at baseline (15±6%, P=0.47). Addition of CID (50 nM) to MSC cultures after transduction with iCasp9-ΔCD19 results in the apoptotic death of more than 90% of iCasp9-positive cells within 24 hrs (93±1%, P<0.0001), while iCasp9-negative cells retain an apoptosis index similar to that of non-transduced controls (20±7%, P=0.99 and P=0.69 vs. non-transduced controls with or without CID respectively) (see FIGS. 17A and 70B). […] Apoptosis was evaluated 24 hours later by FACS analysis, after cell harvest and staining with annexin V-PE and 7-AAD. […]

[3] = system: iCasp9M.IRES.IL-12-transduced cells; test: IL-12 ELISA of supernatant of iCasp9M.I.IL-12-transduced EBV-CTLs; type: cell-based, human; conditions: 10 nM CID; detection limit 8 pg/mL
Description: The concentration of interferon-γ (IFN-γ), IL-2, IL-4, IL-5, IL-10, and tumor necrosis factor-α (TNFα) in CTL culture supernatants was measured using the Human Th1/Th2 cytokine cytometric Bead Array (BD Pharmingen) and the concentration of IL-12 in the culture supernatants was measured by enzyme-linked immunosorbent assay (ELISA; R&D Systems, Minneapolis, Minn.) according to the instructions of the manufacturer.
To determine whether iCasp9M could effectively destroy cells genetically modified to express an active transgene product, the ability of iCasp9M to eliminate EBV-CTLs stably expressing IL-12 was measured. While IL-12 was undetectable in the supernatant of nontransduced and iCasp9M.IRES.GFP-transduced CTLs, the supernatant of iCasp9M.IRES.IL-12-transduced cells contained 324 pg/mL to 762 pg/mL IL-12. After administration of 10 nM CID, however, the IL-12 in the supernatant fell to undetectable levels (<8 pg/mL). Thus, even without prior sorting for high transgene expressing cells, activation of iCasp9M is sufficient to completely eliminate all T cells producing biologically relevant levels of IL-12 (FIG. 6). The function of iCasp9M when coexpressed with IL-12 is graphically represented by bar graphs in FIG. 6. […] Three days after a second antigenic stimulation, the levels of IL-12 in the culture supernatant were measured by IL-12 ELISA (detection limit of this assay is 8 pg/mL). […]

[4] = system: F-Casp9M.I.GFPhigh-transduced T cells; test: Annexin-V/7-AAD staining of GFPhigh-selected iCasp9M-transduced T cells after CID; type: cell-based, human
[5] = system: EBV-specific and CMV-specific T cells; test: Pentamer analysis of virus-specific T cells after AP20187 treatment of allostimulated cells; type: cell-based, human; conditions: 10 nM after 4 days reactivation with allogeneic PBMC
[6] = 10 nM, 24 hours, day following immunomagnetic selection
[7] = representative example of 3 separate experiments

Structure (SMILES): CC[C@H](C(=O)N1CCCC[C@H]1C(=O)O[C@H](CCc1ccc(OC)c(OC)c1)c1cccc(OCC(=O)NCC(CNC(=O)COc2cccc([C@@H](CCc3ccc(OC)c(OC)c3)OC(=O)[C@@H]3CCCCN3C(=O)[C@@H](CC)c3cc(OC)c(OC)c(OC)c3)c2)CN(C)C)c1)c1cc(OC)c(OC)c(OC)c1 [AP20187]
- transduced T cells undergoing apoptosis after administration of CID [1]: Up to 90%
- AP20187-treated cells remaining viable [2, 6]: about 5.5%±2.5
- Killing efficiency after correction for baseline viability [2, 6]: about 92.9%±3.8
- killing efficiency ([2]; day 24 or 25, OKT3/aCD28-reactivated cells): ~84.6%±8.0
- residual viability following treatment with AP20187 ([2]; day 24 post transduction, 10 nM): 19.6±5.6%
- apoptosis / elimination of iCasp9-modified T cells after dimerizer (summary statement) ([2]; in vitro, listed as small-molecule dimerizer): > 90%
- annexin positive iCasp9-CD19-positive cells (iCasp pos/CID) (iCasp9-transduced MSCs): Ninety-three
- annexin positive negative population (iCasp neg/CID) (iCasp9-transduced MSCs): 19%
- IL-12 in the supernatant after CID [3]: < 8 pg/mL
- time to apoptotic characteristics (cell shrinkage and fragmentation) after CID administration ([4]; GFPhigh-selected cells): ≤ 14 h
- apoptotic phenotype (annexin V+, 7-AAD−) [4, 7]: 64%
- necrotic phenotype (annexin V+, 7-AAD+) [4, 7]: 32%
- effect on virus-specific T cells [5]: spares (and thereby enriches) viral reactive subpopulations
